Measurements: patent US11760754B2, “Heterocyclic mitochondrial activity inhibitors and uses thereof” (UNIVERSITÉ DE MONTRÉAL, priority 2017, dated 2023)

How the values were obtained:
MLL-AF9 cells = experiment: MLL-AF9 leukemia cell growth inhibition, dose-response viability assay (CellTiterGlo); assay type: cell-based, murine; conditions: Mus musculus, MLL-AF9, 120 h, read-out: MLL-AF9 EC50
Method: (§1) The potency of the compounds of Example 6 at inhibiting OCI-AML3 cell growth was tested using a procedure similar to that described for Mutritinib in Example 1. […] Murine MLL-AF9 leukemia cells (female cells) were generated by infection with VSV-G-pseudotyped MSCV MLL-AF9 IRES Puro (subcloned from a construct by Frédéric Barabé, Laval U, Quebec, QC, Canada).
(§2) Compounds were added to seeded cells in serial dilutions from 10 μM to 0.5 nM, in duplicates or quadruplicates.

OCI-AML3 cells = experiment: OCI-AML3 cell growth inhibition, dose-response viability assay (CellTiterGlo); assay type: cell-based; conditions: for EC50: Homo sapiens, OCI-AML-3, 144 h, read-out: AML-3 EC50; for sensitivity of OCI-AML3 relative to OCI-AML5: dose-response curves OCI-AML3 and OCI-AML5
Method: Cell dose-response viability assays. […] In the initial screen, compounds were added to seeded cells in serial dilutions (10 dilutions, 1:3, starting from […] 20 μM), in duplicates.
as §1, §2

SMILES	EC50 (MLL-AF9 cells) [nM]	EC50 (OCI-AML3 cells) [nM]	sensitivity of OCI-AML3 relative to OCI-AML5 (OCI-AML3 cells)	OCI-AML3 cells sensitive to the compound (dose response) (OCI-AML3 cells; OCI-AML3 cells)
O=S1(=O)CCN(CCCCc2ccc(OCc3coc(/C=C/c4ccc(C(F)(F)F)cc4F)n3)cc2)CC1 [Compound 137, (E)-4-(4-(4-((2-(2-fluoro-4-(trifluoromethyl)styryl)oxazol-4-yl)methoxy)phenyl)butyl)thiomorpholine 1,1-dioxide]	500 to 1000	–	–	–
CCN(CC)C(=O)OCCCCc1ccc(OCc2coc(/C=C/c3ccc(C(F)(F)F)cc3)n2)cc1 [Compound 34, (E)-4-(4-((2-(4-(trifluoromethyl)styryl)oxazol-4-yl)methoxy)phenyl)butyl diethylcarbamate]	1000 to 10000	1000 to 10000	–	–
C#CCCC(=O)NCCc1cn(CCCCc2ccc(OCc3coc(/C=C/c4ccc(C(F)(F)F)cc4)n3)cc2)nn1 [Compound 14, (E)-N-(2-(1-(4-(4-((2-(4-(trifluoromethyl)styryl)oxazol-4-yl)methoxy)phenyl)butyl)-1H-1,2,3-triazol-4-yl)ethyl)pent-4-ynamide]	500 to 1000	1000 to 10000	–	–
O=S1(=O)CCN(Cc2cnnn2CCCCc2ccc(OCc3coc(/C=C/c4ccc(C(F)(F)F)cc4)n3)cc2)CC1 [Compound 15, (E)-4-((1-(4-(4-((2-(4-(trifluoromethyl)styryl)oxazol-4-yl)methoxy)phenyl)butyl)-1H-1,2,3-triazol-5-yl)methyl)thiomorpholine 1,1-dioxide]	100 to 500	500 to 1000	–	–
CN(C)C(=O)OCCc1nccn1CCCCc1ccc(OCc2coc(/C=C/c3ccc(C(F)(F)F)cc3)n2)cc1 [Compound 53, (E)-2-(1-(4-(4-((2-(4-(trifluoromethyl)styryl)oxazol-4-yl)methoxy)phenyl)butyl)-1H-imidazol-2-yl)ethyl dimethylcarbamate]	50 to 100	100 to 500	–	–
Fc1cc(C(F)(F)F)ccc1/C=C/c1nc(COc2ccc(OCCCn3ccnn3)cc2)co1 [Compound 109, (E)-4-((4-(3-(1H-1,2,3-triazol-1-yl)propoxy)phenoxy)methyl)-2-(2-fluoro-4-(trifluoromethyl)styryl)oxazole]	100 to 500	500 to 1000	–	–
COCCNC(=O)OCCc1cn(CCCCc2ccc(OCc3coc(/C=C/c4ccc(C(F)(F)F)cc4F)n3)cc2)nn1 [Compound 96, (E)-2-(1-(4-(4-((2-(2-fluoro-4-(trifluoromethyl)styryl)oxazol-4-yl)methoxy)phenyl)butyl)-1H-1,2,3-triazol-4-yl)ethyl (2-methoxyethyl)carbamate]	100 to 500	500 to 1000	–	–
COc1ccc(/C=C/c2nc(COc3ccc(CCCCn4ccnn4)cc3)co2)c(F)c1 [Compound 61, (E)-4-((4-(4-(1H-1,2,3-triazol-1-yl)butyl)phenoxy)methyl)-2-(2-fluoro-4-methoxystyryl)oxazole]	100 to 500	100 to 500	–	–
C(=C\c1nc(COc2ccc(CCCCn3ccnn3)cc2)co1)/c1ccncc1 [Compound 80, (E)-4-((4-(4-(1H-1,2,3-triazol-1-yl)butyl)phenoxy)methyl)-2-(2-(pyridin-4-yl)vinyl) oxazole]	100 to 500	500 to 1000	–	–
OC1(c2cn(CCCCc3ccc(OCc4coc(/C=C/c5ccc(C(F)(F)F)cc5)n4)cc3)nn2)CCCC1 [Compound 8, (E)-1-(1-(4-(4-((2-(4-(trifluoromethyl)styryl)oxazol-4-yl)methoxy)phenyl)butyl)-1H-1,2,3-triazol-4-yl)cyclopentanol]	100 to 500	500 to 1000	–	–
O=C(CCCn1ccnn1)c1ccc(OCc2coc(/C=C/c3ccc([N+](=O)[O-])cc3F)n2)cc1 [Compound 24, (E)-1-(4-((2-(2-fluoro-4-nitrostyryl)oxazol-4-yl)methoxy)phenyl)-4-(1H-1,2,3-triazol-1-yl)butan-1-one]	500 to 1000	1000 to 10000	–	–
[N-]=[N+]=Nc1ccc(/C=C/c2nc(COc3ccc(CCCCn4ccnn4)cc3)co2)c(F)c1 [Compound 67, (E)-4-((4-(4-(1H-1,2,3-triazol-1-yl)butyl)phenoxy)methyl)-2-(4-azido-2-fluorostyryl)oxazole]	100 to 500	100 to 500	–	–
O=[N+]([O-])c1ccc(/C=C/c2nc(COc3ccc(CCCCn4ccnc4)cc3)co2)c(F)c1 [Compound 99, (E)-4-((4-(4-(1H-imidazol-1-yl)butyl)phenoxy)methyl)-2-(2-fluoro-4-nitrostyryl)oxazole]	100 to 500	100 to 500	–	–
Fc1cccnc1/C=C/c1nc(COc2ccc(CCCCn3ccnn3)cc2)co1 [Compound 85, (E)-4-((4-(4-(1H-1,2,3-triazol-1-yl)butyl)phenoxy)methyl)-2-(2-(3-fluoropyridin-2-yl)vinyl)oxazole]	1000 to 10000	1000 to 10000	–	–
CC[C@H]1/C=C/C=C/C[C@@H](C)[C@H](O)[C@@](C)(O)C(=O)[C@@H](C)[C@H](O)[C@@H](C)C(=O)[C@@H](C)[C@H](O)[C@@H](C)/C=C/C(=O)O[C@@H]2[C@H](C)[C@H](CC1)O[C@]1(CC[C@H](C)[C@H](C[C@@H](C)O)O1)[C@H]2C [Oligomycin, reference compound]	–	–	more sensitive than OCI-AML5	–
O=CNCCCCc1ccc(OCc2coc(/C=C/c3ccc(C(F)(F)F)cc3F)n2)cc1 [Compound 136, (E)-N-(4-(4-((2-(2-fluoro-4-(trifluoromethyl)styryl)oxazol-4-yl)methoxy)phenyl)butyl)formamide]	100 to 500	–	–	–
C=C(C)[C@H]1Cc2c(ccc3c2O[C@@H]2COc4cc(OC)c(OC)cc4[C@@H]2C3=O)O1 [Rotenone, reference compound]	–	–	more sensitive than OCI-AML5	–
Fc1cc(C(F)(F)F)ccc1/C=C/c1nc(COc2ccc(CCCCn3cnnc3)cc2)co1 [Compound 135, (E)-4-((4-(4-(4H-1,2,4-triazol-4-yl)butyl)phenoxy)methyl)-2-(2-fluoro-4-(trifluoromethyl)styryl)oxazole]	500 to 1000	–	–	–
COc1cc2c(cc1OC)[C@@H]1C(=O)c3ccc4c(c3O[C@@H]1CO2)C=CC(C)(C)O4 [Deguelin, reference compound]	–	–	more sensitive than OCI-AML5	–
CNC(=O)CN1CCC(Oc2cc3c(Nc4cccc(Cl)c4F)ncnc3cc2OC)CC1 [Sapitinib, reference compound]	–	–	–	not

Now from value to compound, other results behind:

EC50 (MLL-AF9 cells) [nM]	EC50 (OCI-AML3 cells) [nM]	SMILES	sensitivity of OCI-AML3 relative to OCI-AML5 (OCI-AML3 cells)	OCI-AML3 cells sensitive to the compound (dose response) (OCI-AML3 cells; OCI-AML3 cells)
100 to 500	100 to 500	Brc1ccc(/C=C/c2nc(COc3ccc(CCCCn4ccnn4)cc3)co2)cc1 [Compound 33, (E)-4-((4-(4-(1H-1,2,3-triazol-1-yl)butyl)phenoxy)methyl)-2-(4-bromostyryl)oxazole]	–	–
100 to 500	500 to 1000	Cc1oc(/C=C/c2ccc(C(F)(F)F)cc2F)nc1COc1ccc(CCCCn2ccnn2)cc1 [Compound 145, (E)-4-((4-(4-(1H-1,2,3-triazol-1-yl)butyl)phenoxy)methyl)-2-(2-fluoro-4-(trifluoromethyl)styryl)-5-methyloxazole]	–	–
100 to 500	50 to 100	Clc1ccc(/C=C/c2nc(COc3ccc(CCCCn4ccnn4)cc3)co2)cc1 [Compound 38, (E)-4-((4-(4-(1H-1,2,3-triazol-1-yl)butyl)phenoxy)methyl)-2-(4-chlorostyryl)oxazole]	–	–
100 to 500	100 to 500	N#Cc1ccc(/C=C/c2nc(COc3ccc(CCCCn4ccnn4)cc3)co2)cc1 [Compound 37, (E)-4-(2-(4-((4-(4-(1H-1,2,3-triazol-1-yl)butyl)phenoxy)methyl)oxazol-2-yl)vinyl)benzonitrile]	–	–
1000 to 10000	1000 to 10000	FC(F)(F)c1ccc(/C=C/c2cccc(COc3ccc(CCCCn4ccnn4)cc3)c2)cc1 [Compound 56, (E)-1-(4-(4-((3-(4-(trifluoromethyl)styryl)benzyl)oxy)phenyl)butyl)-1H-1,2,3-triazole]	–	–
1000 to 10000	500 to 1000	COC(=O)c1ccc(/C=C/c2nc(COc3ccc(CCCCn4ccnn4)cc3)co2)cc1 [Compound 58, (E)-methyl 4-(2-(4-((4-(4-(1H-1,2,3-triazol-1-yl)butyl)phenoxy)methyl)oxazol-2-yl)vinyl)benzoate]	–	–
100 to 500	50 to 100	O=[N+]([O-])c1ccc(/C=C/c2nc(COc3ccc(CCCCn4ccnn4)cc3)co2)cc1 [Compound 40, (E)-4-((4-(4-(1H-1,2,3-triazol-1-yl)butyl)phenoxy)methyl)-2-(4-nitrostyryl)oxazole]	–	–
100 to 500	100 to 500	Oc1ccc(/C=C/c2nc(COc3ccc(CCCCn4ccnn4)cc3)co2)cc1 [Compound 62, (E)-4-(2-(4-((4-(4-(1H-1,2,3-triazol-1-yl)butyl)phenoxy)methyl)oxazol-2-yl)vinyl)phenol]	–	–
500 to 1000	1000 to 10000	CNCc1cn(CCCCc2ccc(OCc3coc(/C=C/c4ccc(C(F)(F)F)cc4)n3)cc2)nn1 [Compound 7, (E)-N-methyl-1-(1-(4-(4-((2-(4-(trifluoromethyl)styryl)oxazol-4-yl)methoxy)phenyl)butyl)-1H-1,2,3-triazol-4-yl)methanamine]	–	–
500 to 1000	100 to 500	Fc1cc(C(F)(F)F)ccc1/C=C/c1nc(COc2ccc(CCCn3ccnn3)cc2)co1 [Compound 105, (E)-4-((4-(3-(1H-1,2,3-triazol-1-yl)propyl)phenoxy)methyl)-2-(2-fluoro-4-(trifluoromethyl)styryl)oxazole]	–	–
1000 to 10000	1000 to 10000	O=[N+]([O-])c1cccc(/C=C/c2nc(COc3ccc(CCCCn4ccnn4)cc3)co2)c1 [Compound 43, (E)-4-((4-(4-(1H-1,2,3-triazol-1-yl)butyl)phenoxy)methyl)-2-(3-nitrostyryl)oxazole]	–	–
